melting point [°C]	Structure (SMILES)
253 to 255	Cc1nn(-c2ccc(F)cc2)c(Cl)c1C(=O)O
99 to 101	CC(C)CC(N)C(=O)Nc1nccs1 (stereo unspecified)
147 to 149	NC(=O)NCc1ccccc1F
176 to 178	Nc1ccc(S(=O)(=O)Nc2ccccc2)cc1
92 to 94	Cc1c(Cl)ccc2ccc(Cl)nc12
122 to 124	Nc1cc(-c2cccc(Br)c2)no1
239 to 241	O=[N+]([O-])c1cccc2ncnc(O)c12
61 to 63	Cc1nc(Cl)c(C)c(-n2cccn2)n1
258 to 260	CC(=O)NC12CC3CC(C1)CC(C(=O)O)(C3)C2
92 to 94	Nc1ccccc1NC12CC3CC(CC(C3)C1)C2
201 to 203	CC(c1ccccc1)n1c(S)nnc1-c1ccccc1 (stereo unspecified)
263 to 265	NS(=O)(=O)c1ccc2c(c1)CCC(=O)N2
153 to 155	Nc1cccc(C(=O)Nc2ccc(Br)cn2)c1
159 to 161	COc1ccc(CCNC(N)=S)cc1OC
158 to 160	CC(C)c1cc(C(=O)O)n(C)n1
40 to 48	Nc1cc(C(F)(F)F)ccc1-n1cccn1
62 to 64	O=C(O)CSc1ccc(F)c(F)c1
166 to 168	Nc1ccc2nc(N3CCOCC3)sc2c1
262 to 264	Cc1nc(S(=O)(=O)N2CCC(C(=O)O)CC2)cn1C
180 to 182	O=C(O)CNS(=O)(=O)c1ccc2ccccc2c1
214 to 216	COc1ccc(S(=O)(=O)Cl)cc1C1(C)NC(=O)NC1=O (stereo unspecified)
48 to 50	CC(C)(CCCc1ccccc1)C(=O)O
139 to 141	O=S(=O)(Cl)c1ccc(S(=O)(=O)C(F)F)cc1

melting point [°C]	Structure (SMILES)
193 to 195	O=C(O)c1ccc(-c2ccc(F)cc2)o1
303 to 305	O=c1[nH]c(-c2ccncc2)cs1
284 to 286	Nc1ccc(Cl)c(-c2nnc3n2CCCCC3)c1
122 to 124	Cc1cc(Cn2cc(Br)cn2)oc1C(=O)O
185 to 187	Cc1c[nH]c(=O)n1-c1ccc(Cl)cc1
125 to 127	CC(=O)NCc1ccc(C(=O)CCl)o1
134 to 136	Cn1cn[nH]c1=O
88 to 90	CCOC(=O)c1c(N)sc2c1CCC(CC)C2 (stereo unspecified)
60 to 65	Cc1n[nH]c(C)c1S(=O)(=O)Cl
293 to 295	Oc1ccc2cccc(O)c2n1
55 to 57	COc1c(C=O)c(C)nn1C
209 to 211	O=C(O)c1ccc(-c2ccc(OC(F)F)cc2)s1
152 to 154	CN(c1ccc(O)cc1)S(=O)(=O)c1ccc(F)cc1
116 to 118	COC(=O)C(Cc1c[nH]cn1)NC(C)=O (stereo unspecified)
195 to 197	Cc1ccc(-c2nnc(S)o2)cc1C
94 to 96	COc1ccccc1-c1cc(N)[nH]n1
218 to 220	O=C(Nc1ccc(O)cc1)c1ccco1
138 to 140	CC(C)(C)OC(=O)N1CCN(CCS(N)(=O)=O)CC1
104 to 106	CS(=O)(=O)c1cccc(NC(=O)CCl)c1
119 to 121	CC1CC(C)CN(c2nnc(S)n2Cc2ccco2)C1 (stereo unspecified)
153 to 155	Nc1nc(Br)ccc1O
55 to 57	O=c1[nH]ccs1
285 to 287	Cc1nc2cc(=O)[nH]n2c(C)c1CC(=O)O

melting point [°C]	Structure (SMILES)
66 to 68	Cc1cc(CC(=O)O)c(C)s1
169 to 171	O=C(O)c1cc2ccccc2nc1N1CCCC1
113 to 115	O=Cc1cnc(-c2cccs2)s1
90 to 92	Nc1ccc(Oc2ccc(C(F)(F)F)cn2)c(F)c1
111 to 113	Cn1cc(SSc2cnn(C)c2)cn1
246 to 248	Cn1ncc2cn[nH]c2c1=O
291 to 293	O=C(Cc1ccc(Br)cc1)Nc1cccc(C(=O)O)c1
224 to 226	Cc1oc(C(N)=O)cc1-c1csc(N)n1
143 to 145	NCc1ccc(C(=O)N2CCNC(=O)C2)cc1
86 to 88	OC1CCc2c(OCc3ccccc3)cccc21 (stereo unspecified)
231 to 233	O=C(O)c1cccc(S(=O)(=O)NCc2cccnc2)c1
57 to 59	CC(C)(C)OC(=O)NCC1CCCCC1O (stereo unspecified)
277 to 279	Oc1cc(C(F)(F)F)nc(-c2cccnc2)n1
69 to 71	O=C(NC=C(Cl)Cl)c1ccc(F)cc1
67 to 69	Nc1cccc(NC(=O)CN2CCCCCC2)c1
135 to 137	CCOC(=O)c1c(N)oc(C)c1C(C)=O
112 to 114	Clc1ccc2cccc(Br)c2n1
177 to 179	C#CCN1CCCCC1C(=O)O (stereo unspecified)
61 to 63	COCCOc1ccc2[nH]ccc2c1
90 to 92	CC(C)(C)c1nonc1N
78 to 80	CC(C)(C)c1ccc(C(=O)CC#N)cc1
48 to 50	CC(N)c1ccc(-n2cccn2)cc1 (stereo unspecified)
110 to 112	N#CCC(=O)N1CCN(C(c2ccccc2)c2ccccc2)CC1

melting point [°C]	Structure (SMILES)
138 to 140	CC1(C)CCc2sc(C(=O)O)cc2C1
156 to 158	COC(=O)c1ccc([N+](=O)[O-])cc1N
196 to 198	C/C(=N\O)c1cccc(NC(=O)c2ccc(F)cc2)c1
89 to 91	CC1(O)CCC(N)CC1 (stereo unspecified)
122 to 124	CC1CNC(=O)CC(C)C1 (stereo unspecified)
43 to 45	COc1cc(C=O)ccc1S
119 to 121	CC(C)(C)OC(=O)NNC(=O)C(F)(F)F
260 to 264	Cc1nc2nc(N)nn2c(C)c1CC(=O)O
64 to 66	COC(=O)c1ccc(N)c(OC(F)F)c1
167 to 169	COc1ccc(C2(C(=O)O)CCOCC2)cc1
194 to 196	Nc1ccc(-c2nc3cc(F)ccc3[nH]2)cc1
117 to 119	O=C(O)c1cc(F)ccc1-c1ccccc1
134 to 136	Sc1nnc(-c2ccco2)n1C1CCCCC1
84 to 86	CC(C)(C)N1C(=O)CNC1=O
178 to 180	O=C(O)c1nccnc1C(=O)Nc1ccc(Cl)cc1
65 to 67	NCC1(O)CCSCC1
210 to 212	COc1ccc(C(=O)/C=C2\NC(=O)CS2)cc1
80 to 82	N#CC(N)c1ccc(Cl)cc1Cl (stereo unspecified)
154 to 156	Cc1cc(Br)cc(Cl)c1C(=O)O
158 to 160	O=C(O)C1(c2cccc(Br)c2)CCCC1
57 to 59	Cc1ccc(S(=O)(=O)N2CC(Cc3cccc(F)c3)C2)cc1
74 to 76	Brc1cc[nH]n1
69 to 71	Cc1nonc1C(=O)O

melting point [°C]	Structure (SMILES)
94 to 96	Brc1ncnc2ccccc12
141 to 143	CC(Cl)C(=O)N1N=C(c2ccc(Cl)cc2)CC1c1ccco1 (stereo unspecified)
259 to 261	Cc1cc(C(=O)O)c2cc(Br)ccc2n1
315 to 317	O=c1[nH]c(S)nc2sccc12
138 to 140	CNc1cc(Cl)ncn1
115 to 117	NCC(O)c1ccc2ccccc2c1 (stereo unspecified)
62 to 64	COC(=O)Nc1cccc(N)c1
279 to 281	Nc1ccc2c(c1)S(=O)(=O)NC2=O
87 to 89	Fc1cccc(-n2ccnc2)n1
233 to 235	CNC(=Nc1ccnn1C(C)C)c1ccco1
198 to 200	CC1Oc2ccc(N)cc2NC1=O (stereo unspecified)
188 to 190	O=C(O)C1CCN(C(=O)c2cccnc2)CC1
31 to 33	COc1ccc(N)cc1C
187 to 189	CCCS(=O)(=O)Nc1ccc(C(=O)O)cc1
56 to 58	Cc1cc(CCCC(=O)O)c(C)s1
223 to 225	CC(=O)NC1=NN(C(C)=O)C(C)(c2ccccc2)S1 (stereo unspecified)
210 to 212	CC(=O)Nc1sc2c(c1C(=O)O)CCCC2
118 to 120	N#Cc1ccccc1Oc1ccc(N)cc1
60 to 62	O=C(CC1CCOCC1)c1ccccc1
56 to 59	CC(C(=O)O)n1cc(Cl)cn1 (stereo unspecified)
110 to 112	CN(C)C(=O)COc1ccc(C#N)cc1
135 to 137	O=C(NC1CC1)C1CCNCC1
135 to 137	Cc1c(NCC(C)(C)C)cccc1C(=O)O

melting point [°C]	Structure (SMILES)
137 to 139	COc1ccc(C(=O)N2CCCC2)cc1N
119 to 121	CCOC(=O)COc1cccc(C(=O)O)c1
240 to 242	O=C(O)CC1Sc2ccc(Cl)cc2NC1=O (stereo unspecified)
99 to 101	CCOCCNC(=O)c1ccc(Br)cc1
118 to 120	CCN(CC)C(=O)c1ccc(N)cc1
154 to 156	O=C(C(=O)c1ccccn1)c1ccccn1
195 to 197	NNc1ccc(S(=O)(=O)Nc2cccc(Cl)c2)cc1[N+](=O)[O-]
146 to 148	COc1ccccc1C(NC(=O)OC(C)(C)C)C(=O)O (stereo unspecified)
201 to 203	O=C(O)c1ccncc1N1CCOCC1
84 to 86	O=C(O)c1ccccc1OCCOc1ccccc1
139 to 141	Cc1cc(Br)cc(C)c1NC(=O)CCCCl
94 to 96	CC(NC(N)=S)c1ccccc1 (stereo unspecified)
79 to 81	NNC(=O)NCC1CCCO1 (stereo unspecified)
78 to 80	CC(NC(=O)OC(C)(C)C)c1ccc(CN)cc1 (stereo unspecified)
204 to 206	CC1(c2ccc(F)cc2)NC(=O)NC1=O (stereo unspecified)
75 to 77	Cc1sc(N)nc1Cc1ccccc1
121 to 123	O=C(O)CCC(=O)N1CCC(O)CC1
132 to 134	N#CCC(=O)N1CCN(c2ccccc2)CC1
95 to 97	O=[N+]([O-])c1cn[nH]c1C1CC1
118 to 120	Cc1cccc2nc(C(F)(F)F)[nH]c(=O)c12
101 to 103	Fc1ccc(-n2nc(CCl)c3c2CCC3)cc1
61 to 63	CC(C)CCS(=O)(=O)CC(=O)O

Structure (SMILES)	melting point [°C]
CC(C)CNC(=O)NC(=O)CCl	105 to 107
NCCc1cc2ccccc2[nH]1	95 to 97
NC(=S)C1CN2CCCC2CO1 (stereo unspecified)	146 to 148
Fc1ccc2c(C3CCNCC3)c[nH]c2c1	225 to 227
O=C(CCl)NC1CCS(=O)(=O)C1 (stereo unspecified)	89 to 98
ClCc1nc(-c2ccco2)no1	82 to 84
Cc1nc2ccccc2c(=O)n1-c1ccc(Br)cc1	176 to 178
CC(Cc1ccc(Cl)cc1)NC(=O)OC(C)(C)C (stereo unspecified)	93 to 95
CSc1ccc(C#N)c(Cl)c1	117 to 119

From a melting point compilation (Tetko et al.)
